Data as given in patent US8445517B2, “Stat modulators” (Dana-Farber Cancer Institute, priority 2009, dated 2013).
“Also recorded” adds a separate entry of the source. Structures can show the parent of a compound that is named as a salt.

Tests used:
[1] = system: MCF-7 breast cancer cells; experiment: Growth inhibition by IFN-γ in breast cancer cells; format: cell-based, human; conditions: Stat1-dependent; MCF-7 cells (FIG. 8)
Stat1 [2] = experiment: Mechanistic studies of Stat1 tyrosine phosphorylation; format: cell-based
endogenous Stat1 genes = experiment: Expression of endogenous Stat1 target genes (quantitative real-time PCR); format: cell-based
Method: This is followed by another confirmation assay utilizing quantitative real-time PCR measuring expression of endogenous target genes of each Stat. In this assay the cells are incubated as described above. However, after the incubation the cells are lysed and assessed for increased or decreased expression of target genes specific for the respective Stat molecule, e.g., Stat1, interferon-responsive factor (IRF)-1, GADD45[…], and IFI-16; for Stat3, SOCS3, BCL-6, and KLF-4; and, for Stat5, CIS, PIM-1, and MMP3.

Stat1 [3] = experiment: Stat1 luciferase reporter cell screen (NIH3T3 cells, IFN-γ stimulated); format: cell-based; conditions: screen for enhancers of Stat1 function
Method: A cell-based assay system for each Stat1, Stat3 and Stat5 was developed to identify compounds that modulate the respective Stat activity. Although the details for each system are slightly different, as described below, the basic principle are the same. […]
Cells were selected in geneticin (G418) to isolate clones that had stably integrated the plasmid. Individual clones were isolated and luciferase expression was measured by luminometry in the presence and absence of a stimulator of the specific Stat of interest. […]
All three cell-based screening systems were adapted for use in 384-well plates, which were then used to screen a library of 1120 compounds (the Prestwick Myeloma Collection available from Prestwick Chemical, Illkirch, France). […] After 6 hours, 40 μl of 0.5× Bright-Glo luciferase substrate (diluted in PBS) is added, and luciferase activity is quantitated on a Luminoskan luminometer (Helsinki, Finland). […]

Stat3 = Stat3 luciferase reporter cell assay (U3A cells, IL-6 stimulated); format: cell-based; conditions: for inhibition of Stat3 activity in validation studies: compounds tested individually, dose responses analyzed, selective versus NF-κB; for enhancement of Stat3 function: Stat3-dependent luciferase screen; for Stat3-dependent luciferase activity, primary screen: library screen in 384-well plates, IL-6 stimulated; for induction of luciferase in the Stat3 reporter system: cytokine treatment, test of reporter specificity
Source text: A cell-based assay system for each Stat1, Stat3 and Stat5 was developed to identify compounds that modulate the respective Stat activity. Although the details for each system are slightly different, as described below, the basic principle are the same. Appropriate cell lines (NIH3T3 for Stat1, U3A for Stat3, and T47D for Stat5) were transfected with a plasmid containing a luciferase reporter gene under the control of a promoter responsive to the indicated Stat, e.g., Stat1, Stat3 or Stat5, as well as a neomycin phosphotransferase cassette (BRIGHT GLO Luciferase Assay Kit available from Promega (Madison, Wis.). The reporter plasmid used in the Stat1 and Stat3 cell lines is described in Lynch et al., Cancer Research, 67:1254-61 (2007), which is herein incorporated by reference in its entirety. The nuclic acid binding sequence of Stat5 use in the reporter plasmid is denoted as region B in Walker et al., Oncogene, 26:224-233 (2007), which is herein incorporated by reference in its entirety.
Cells were selected in geneticin (G418) to isolate clones that had stably integrated the plasmid. Individual clones were isolated and luciferase expression was measured by luminometry in the presence and absence of a stimulator of the specific Stat of interest. Clones having a low basal luciferase expression, prominent induction by a specific stimulus (IFN-γ for Stat1, (IL)-6 for Stat3 and prolactin for Stat5), no induction with an irrelevant stimulus, and stable properties after prolonged cell culture or cryopreservation and thawing were selected. […] Several of these cell lines for each Stat construct were deposited with American Type Culture Collection of Manassas, Va. For example, cell lines having the Stat1 inducible promoter were deposited under ATCC Nos. Cell lines having the Stat3 inducible promoter were deposited under ATCC Nos. Cell lines having the Stat5 inducible promoter were deposited under ATCC numbers Nos.
To ensure the specificity of the reporter systems, the Stat3 reporter cell line and the NF-κB reporter system were compared. Each cell type was either untreated, treated with IL-6 (which activates Stat3 in both systems) or treated with TNF-α (which activates NF-κB in both).
All three cell-based screening systems were adapted for use in 384-well plates, which were then used to screen a library of 1120 compounds (the Prestwick Myeloma Collection available from Prestwick Chemical, Illkirch, France). […] Briefly, 2,500 cells are plated per well in 30 μl of medium in a 384 well plate and grown in Dulbecco's modified Eagle's medium (DMEM) supplemented with 10% fetal calf serum in an incubator with a 95% air/5% CO2 atmosphere at 37° C. After a 16 hour incubation to allow cells to adhere, 100 nl of the test compound is added per well and incubated for one hour, after which the activating cytokine (IFN-γ, IL-6, and prolactin, respectively) are added to each well in 10 μl of medium. After 6 hours, 40 μl of 0.5× Bright-Glo luciferase substrate (diluted in PBS) is added, and luciferase activity is quantitated on a Luminoskan luminometer (Helsinki, Finland).

NF-κB = NF-κB luciferase reporter cell assay (293T cells, TNF-α stimulated); format: cell-based; conditions: for NF-κB activity, primary screen: NF-κB luciferase reporter, control for non-specific effects; for induction of luciferase in the NF-κB reporter cells: cytokine treatment, test of reporter specificity
Method: A parallel system was also developed in which luciferase was under the control of the transcription factor NF-κB (cell lines deposited on under ATCC Nos.). When these 293T cells are treated with tumor necrosis factor (TNF)-α, they show prominent induction of luciferase. This provided an independent control to exclude non-specific effects.
To ensure the specificity of the reporter systems, the Stat3 reporter cell line and the NF-κB reporter system were compared. Each cell type was either untreated, treated with IL-6 (which activates Stat3 in both systems) or treated with TNF-α (which activates NF-κB in both). IL-6 led to approximately a five-fold induction of luciferase in the Stat3 reporter system, but induced no change in the NF-κB reporter cells. Conversely, TNF-α induced a 12-fold induction of luciferase in the NF-κB reporter cells, but led to no change in the Stat3-reporter system. The Stat1 and Stat5 reporter systems show similar characteristics. All three cell-based screens are able to reproducibly identify active and specific compounds.
The compounds that show selective activity in the primary screen (e.g., 25% or more difference in luciferase activity in the presence versus the absence of the compound and less than 12% difference in luciferase activity in the Nf-κB assay in the presence versus the absence of the compound) were then validated in a dose-response assay using the appropriate reporter cell lines.

Compound: Oc1ccccc1-c1ccc2cccnc2n1 [2-(1,8-Naphthyridin-2-yl)phenol]
- growth inhibitory effects of IFN-γ on human breast cancer cell lines [1]: accentuated; also recorded: enhances
- magnitude and duration of Stat1 tyrosine phosphorylation (Stat1 [2]): increasing
- expression of endogenous Stat1 genes (endogenous Stat1 genes): enhanced
- Stat1 modulator class as named in figure legend (Stat1 [3]): Stat1 activator

Compound: O=S1(=O)CCC(OC2CCS(=O)(=O)C2)C1 (stereo not drawn) [3,3′-oxybis[tetrahydrothiophene, 1,1,1′,1′-tetraoxide]
- Stat3 modulator class as named in figure legend (Stat3): Stat3 inhibitor

Compound: CCCN(CCC)C(=O)CC(c1ccccc1)c1ccccc1O (stereo not drawn) [3-(2-hydroxyphenyl)-3-phenyl-N,N-dipropylpropanamide]
- inhibition of Stat3 activity in validation studies (Stat3): significantly and specifically inhibit Stat3 activity

Compound: Nc1ncnc2c1ncn2[C@@H]1O[C@H](COP(=O)(O)O)[C@@H](O)[C@H]1O.O [adenosine 5′-monophosphate monohydrate]
- enhancement of Stat3 function (Stat3): specifically enhance Stat3 function

Compound: C=CCc1ccccc1OCC(O)CNC(C)C (stereo not drawn) [alprenolol hydrochloride]
- inhibition of Stat3 activity in validation studies (Stat3): significantly and specifically inhibit Stat3 activity

Compound: C[C@@H]1C[C@@H]([C@H](O)CC2CC(=O)NC(=O)C2)C(=O)[C@@H](C)C1 [cycloheximide]
- NF-κB activity, primary screen (NF-κB): inhibited both
- Stat3-dependent luciferase activity, primary screen (Stat3): inhibited both

Compound: COc1cccc2c1C(=O)c1c(O)c3c(c(O)c1C2=O)C[C@@](O)(C(C)=O)C[C@@H]3O[C@H]1C[C@H](N)[C@H](O)[C@H](C)O1 [daunorubicin]
- NF-κB activity, primary screen (NF-κB): inhibited both
- Stat3-dependent luciferase activity, primary screen (Stat3): inhibited both

Compound: COc1cccc2c1C(=O)c1c(O)c3c(c(O)c1C2=O)C[C@@](O)(C(=O)CO)C[C@@H]3O[C@H]1C[C@H](N)[C@H](O)[C@H](C)O1 [doxorubicin]
- NF-κB activity, primary screen (NF-κB): inhibited both
- Stat3-dependent luciferase activity, primary screen (Stat3): inhibited both

Compound: CNCCC(Oc1ccc(C(F)(F)F)cc1)c1ccccc1 (stereo not drawn) [fluoxetine hydrochloride]
- inhibition of Stat3 activity in validation studies (Stat3): significantly and specifically inhibit Stat3 activity

Compound: N=C(N)N/N=C/c1c(Cl)cccc1Cl [guanabenz acetate]
- inhibition of Stat3 activity in validation studies (Stat3): significantly and specifically inhibit Stat3 activity

Compound: O=P1(NCCCl)OCCCN1CCCl (stereo not drawn) [ifosfamide]
- inhibition of Stat3 activity in validation studies (Stat3): significantly and specifically inhibit Stat3 activity

Compound: COC(=O)Nc1nc2ccc(C(=O)c3ccccc3)cc2[nH]1 [mebendazole]
- enhancement of Stat3 function (Stat3): specifically enhance Stat3 function

Compound: O=C1c2c(O)ccc(O)c2C(=O)c2c(NCCNCCO)ccc(NCCNCCO)c21 [mitoxantrone]
- NF-κB activity, primary screen (NF-κB): inhibited both
- Stat3-dependent luciferase activity, primary screen (Stat3): inhibited both

Compound: CCOC(=O)Nc1ccc2c(c1)N(C(=O)CCN1CCOCC1)c1ccccc1S2 [moricizine hydrochloride]
- inhibition of Stat3 activity in validation studies (Stat3): significantly and specifically inhibit Stat3 activity

Compound: O=C(N/N=C/c1ccc([N+](=O)[O-])o1)c1ccc(O)cc1 [nifuroxazide]
- inhibition of Stat3 activity in validation studies (Stat3): significantly and specifically inhibit Stat3 activity

Compound: COC(=O)Nc1nc2ccc(C(=O)c3cccs3)cc2[nH]1 [nocodazole]
- enhancement of Stat3 function (Stat3): specifically enhance Stat3 function

Compound: CNCCC=C1c2ccccc2CCc2ccccc21 [nortriptyline hydrochloride]
- enhancement of Stat3 function (Stat3): specifically enhance Stat3 function

Compound: COc1cc([C@@H]2c3cc4c(cc3[C@H](O)[C@H]3COC(=O)[C@H]23)OCO4)cc(OC)c1OC [podophyllotoxin]
- enhancement of Stat3 function (Stat3): specifically enhance Stat3 function

Compound: CN(C)CCCN1c2ccccc2Sc2ccccc21 [promazine hydrochloride]
- enhancement of Stat3 function (Stat3): specifically enhance Stat3 function

Compound: CC[N+](C)(CC)CCC[n+]1c(-c2ccccc2)c2cc(N)ccc2c2ccc(N)cc21.[I-].[I-] [propidium iodide]
- NF-κB activity, primary screen (NF-κB): inhibited both
- Stat3-dependent luciferase activity, primary screen (Stat3): inhibited both

Compound: NC(=O)c1ncn([C@@H]2O[C@H](CO)[C@@H](O)[C@H]2O)n1 [ribavirin]
- enhancement of Stat3 function (Stat3): specifically enhance Stat3 function

Compound: CN(C)C/C=C(/c1ccc(Br)cc1)c1cccnc1 [zimelidine dihydrochloride monohydrate]
- enhancement of Stat3 function (Stat3): specifically enhance Stat3 function

Compound: IL-6: cytokine which activates Stat3; specific stimulus of the Stat3 reporter
- induction of luciferase in the NF-κB reporter cells (NF-κB): no change
- induction of luciferase in the Stat3 reporter system (Stat3): five-fold

Compound: TNF-α
- induction of luciferase in the NF-κB reporter cells (NF-κB): 12 fold
- induction of luciferase in the Stat3 reporter system (Stat3): no change

Compound: deptropine citrate
- enhancement of Stat3 function (Stat3): specifically enhance Stat3 function

Compound: solanine alpha
- inhibition of Stat3 activity in validation studies (Stat3): significantly and specifically inhibit Stat3 activity
